{"source": "PubChem BioAssay (NCI)", "assay_in_all_cases": "inhibition of tumour cell growth, NCI panel, 48 h", "key": {"[1]": {"system": "SK-OV-3 ovarian"}, "[2]": {"system": "SF-268 CNS"}, "[3]": {"system": "OVCAR-3 ovarian"}, "[4]": {"system": "HOP-62 NSCLC"}, "[5]": {"system": "SK-MEL-2 melanoma"}, "[6]": {"system": "LOX IMVI melanoma"}, "[7]": {"system": "UACC-62 melanoma"}, "[8]": {"system": "SNB-75 CNS"}, "[9]": {"system": "HCT-116 colon"}, "[10]": {"system": "M14 melanoma"}}, "note": "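Assay format: 96-well plates, 48-hour exposure. GI50 is the concentration that inhibits growth by half. TGI: concentration producing complete growth inhibition.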"}
{"compound": "COc1cc2c(cc1OC)C(C(c1ccccc1)c1ccccc1)N(C)CC2", "note": "(stereo not drawn)", "values": [{"measurement": "TGI", "setting": "[1]", "result": "> 100", "unit": "µM"}, {"measurement": "TGI", "setting": "[2]", "result": "> 100", "unit": "µM"}, {"measurement": "TGI", "setting": "[3]", "result": "> 100", "unit": "µM"}, {"measurement": "TGI", "setting": "[4]", "result": "> 100", "unit": "µM"}, {"measurement": "TGI", "setting": "[5]", "result": "> 100", "unit": "µM"}, {"measurement": "TGI", "setting": "[6]", "result": "> 100", "unit": "µM"}, {"measurement": "TGI", "setting": "[7]", "result": "> 100", "unit": "µM"}, {"measurement": "TGI", "setting": "[8]", "result": 99.5, "unit": "µM"}, {"measurement": "TGI", "setting": "[9]", "result": "> 100", "unit": "µM"}]}
{"compound": "O=C1CCC(c2ccccc2)=NN1c1nsc2ccccc12", "values": [{"measurement": "TGI", "setting": "[2]", "result": "> 100", "unit": "µM"}, {"measurement": "TGI", "setting": "[3]", "result": "> 100", "unit": "µM"}, {"measurement": "TGI", "setting": "[4]", "result": "> 100", "unit": "µM"}, {"measurement": "TGI", "setting": "[5]", "result": "> 100", "unit": "µM"}, {"measurement": "TGI", "setting": "[6]", "result": "> 100", "unit": "µM"}, {"measurement": "TGI", "setting": "[10]", "result": "> 100", "unit": "µM"}, {"measurement": "TGI", "setting": "[7]", "result": "> 100", "unit": "µM"}, {"measurement": "TGI", "setting": "[8]", "result": "> 100", "unit": "µM"}, {"measurement": "TGI", "setting": "[9]", "result": "> 100", "unit": "µM"}]}
{"compound": "COc1cnc2c(c1)C(=O)c1c-2n(CCCN2CCOCC2)c(=O)c2cc(Cl)ccc12", "values": [{"measurement": "GI50", "setting": "[1]", "result": 0.397, "unit": "µM"}, {"measurement": "TGI", "setting": "[1]", "result": "> 100", "unit": "µM"}, {"measurement": "GI50", "setting": "[2]", "result": 0.288, "unit": "µM"}, {"measurement": "TGI", "setting": "[2]", "result": "> 100", "unit": "µM"}, {"measurement": "GI50", "setting": "[3]", "result": 0.783, "unit": "µM"}, {"measurement": "TGI", "setting": "[3]", "result": "> 100", "unit": "µM"}, {"measurement": "GI50", "setting": "[4]", "result": 0.274, "unit": "µM"}, {"measurement": "TGI", "setting": "[4]", "result": 22.4, "unit": "µM"}, {"measurement": "GI50", "setting": "[5]", "result": 30.5, "unit": "µM"}, {"measurement": "TGI", "setting": "[5]", "result": "> 100", "unit": "µM"}, {"measurement": "GI50", "setting": "[6]", "result": 0.152, "unit": "µM"}, {"measurement": "TGI", "setting": "[6]", "result": 0.532, "unit": "µM"}, {"measurement": "GI50", "setting": "[10]", "result": 0.323, "unit": "µM"}, {"measurement": "TGI", "setting": "[10]", "result": "> 100", "unit": "µM"}, {"measurement": "GI50", "setting": "[7]", "result": 0.187, "unit": "µM"}, {"measurement": "TGI", "setting": "[7]", "result": "> 100", "unit": "µM"}, {"measurement": "GI50", "setting": "[8]", "result": 15.1, "unit": "µM"}, {"measurement": "TGI", "setting": "[8]", "result": 57.1, "unit": "µM"}, {"measurement": "GI50", "setting": "[9]", "result": 0.167, "unit": "µM"}, {"measurement": "TGI", "setting": "[9]", "result": "> 100", "unit": "µM"}]}
{"compound": "O=c1oc2cc(O)ccc2c(O)c1C(c1ccccc1)c1c(O)c2ccc(O)cc2oc1=O", "values": [{"measurement": "TGI", "setting": "[1]", "result": "> 100", "unit": "µM"}, {"measurement": "TGI", "setting": "[2]", "result": "> 100", "unit": "µM"}, {"measurement": "TGI", "setting": "[3]", "result": "> 100", "unit": "µM"}, {"measurement": "TGI", "setting": "[4]", "result": "> 100", "unit": "µM"}, {"measurement": "TGI", "setting": "[5]", "result": "> 100", "unit": "µM"}, {"measurement": "TGI", "setting": "[6]", "result": "> 100", "unit": "µM"}, {"measurement": "TGI", "setting": "[10]", "result": "> 100", "unit": "µM"}, {"measurement": "TGI", "setting": "[7]", "result": "> 100", "unit": "µM"}, {"measurement": "TGI", "setting": "[8]", "result": "> 100", "unit": "µM"}, {"measurement": "TGI", "setting": "[9]", "result": "> 100", "unit": "µM"}]}
{"compound": "C[n+]1c(/C=C/c2c(O)ccc3ccccc23)ccc2ccccc21", "values": [{"measurement": "GI50", "setting": "[2]", "result": 7.19, "unit": "µM"}, {"measurement": "TGI", "setting": "[2]", "result": 16.7, "unit": "µM"}, {"measurement": "GI50", "setting": "[3]", "result": 2.29, "unit": "µM"}, {"measurement": "TGI", "setting": "[3]", "result": 8.38, "unit": "µM"}, {"measurement": "GI50", "setting": "[4]", "result": 6.25, "unit": "µM"}, {"measurement": "TGI", "setting": "[4]", "result": 13.8, "unit": "µM"}, {"measurement": "GI50", "setting": "[5]", "result": 5.91, "unit": "µM"}, {"measurement": "TGI", "setting": "[5]", "result": 13.3, "unit": "µM"}, {"measurement": "GI50", "setting": "[6]", "result": 5.65, "unit": "µM"}, {"measurement": "TGI", "setting": "[6]", "result": 12.7, "unit": "µM"}, {"measurement": "GI50", "setting": "[10]", "result": 5.8, "unit": "µM"}, {"measurement": "TGI", "setting": "[10]", "result": 12.8, "unit": "µM"}, {"measurement": "GI50", "setting": "[7]", "result": 5.77, "unit": "µM"}, {"measurement": "TGI", "setting": "[7]", "result": 12.2, "unit": "µM"}, {"measurement": "GI50", "setting": "[8]", "result": 6.15, "unit": "µM"}, {"measurement": "TGI", "setting": "[8]", "result": 14.2, "unit": "µM"}, {"measurement": "GI50", "setting": "[9]", "result": 3.06, "unit": "µM"}, {"measurement": "TGI", "setting": "[9]", "result": 10.3, "unit": "µM"}]}
{"compound": "COc1cccc(N2C(Cl)C(=O)C2c2c[nH]c3ccccc23)c1", "note": "(stereo not drawn)", "values": [{"measurement": "TGI", "setting": "[1]", "result": "> 100", "unit": "µM"}, {"measurement": "TGI", "setting": "[2]", "result": "> 100", "unit": "µM"}, {"measurement": "TGI", "setting": "[3]", "result": "> 100", "unit": "µM"}, {"measurement": "TGI", "setting": "[4]", "result": "> 100", "unit": "µM"}, {"measurement": "TGI", "setting": "[5]", "result": "> 100", "unit": "µM"}, {"measurement": "TGI", "setting": "[10]", "result": "> 100", "unit": "µM"}, {"measurement": "TGI", "setting": "[7]", "result": "> 100", "unit": "µM"}, {"measurement": "TGI", "setting": "[9]", "result": "> 100", "unit": "µM"}]}
{"compound": "C[N+](C)([O-])CCOc1cc2c(c3ccccc13)-c1ccccc1C2=O", "values": [{"measurement": "TGI", "setting": "[1]", "result": "> 100", "unit": "µM"}, {"measurement": "TGI", "setting": "[2]", "result": 36.4, "unit": "µM"}, {"measurement": "TGI", "setting": "[3]", "result": "> 52.6", "unit": "µM"}, {"measurement": "TGI", "setting": "[4]", "result": 69.6, "unit": "µM"}, {"measurement": "TGI", "setting": "[5]", "result": 33.2, "unit": "µM"}, {"measurement": "TGI", "setting": "[6]", "result": "> 47.4", "unit": "µM"}, {"measurement": "TGI", "setting": "[7]", "result": 30.2, "unit": "µM"}, {"measurement": "TGI", "setting": "[8]", "result": 53.2, "unit": "µM"}, {"measurement": "TGI", "setting": "[9]", "result": "> 68", "unit": "µM"}]}
{"compound": "O=C1CC2(CCC(O)(c3ccc4ccccc4c3)C(C(=O)c3ccc4ccccc4c3)C2)C(=O)c2ccccc2N1", "note": "(stereo not drawn)", "values": [{"measurement": "TGI", "setting": "[1]", "result": "> 100", "unit": "µM"}, {"measurement": "TGI", "setting": "[2]", "result": "> 100", "unit": "µM"}, {"measurement": "TGI", "setting": "[3]", "result": "> 100", "unit": "µM"}, {"measurement": "TGI", "setting": "[4]", "result": "> 100", "unit": "µM"}, {"measurement": "TGI", "setting": "[5]", "result": "> 100", "unit": "µM"}, {"measurement": "TGI", "setting": "[6]", "result": "> 100", "unit": "µM"}, {"measurement": "TGI", "setting": "[10]", "result": "> 100", "unit": "µM"}, {"measurement": "TGI", "setting": "[7]", "result": "> 100", "unit": "µM"}, {"measurement": "TGI", "setting": "[8]", "result": "> 100", "unit": "µM"}, {"measurement": "TGI", "setting": "[9]", "result": "> 100", "unit": "µM"}]}
